Results from EP4786451A1, “COMPOUND TARGETING INTEGRIN AND USE THEREOF IN RNAI AGENT” (YUN HO BIO CO., LTD, priority 2023, dated 2025).
Several values for one entry are separate records, joined by “and”; a condition that tells them apart may be missing. Equal values may be shown once. Read-outs that look alike come from different tables or passages of the source.

What was measured:
Integrin αvβ6 Receptor [1] = biological target: T1, Integrin αvβ6 Receptor (Homo sapiens, UniProt P06756+P18564); assay: HTRF binding activity to integrin αvβ6 receptor (competition with LAP (TGF-beta 1)); details: for Hillslope: fit parameter of the inhibition curve; for Max: maximum of the inhibition curve; for Min: minimum of the inhibition curve; for specific binding ability to the αvβ6 receptor: αvβ6 compared with αvβ1 and αvβ5
Procedure: Main Experimental Reagents and Consumables
Inhibition rate and fit IC50 was calculated using Excel and XL-Fit respectively, formula as follows: Inhibition % = (Max−Signal)/(Max−Min)*100 [formula] Y = Bottom + (Top−Bottom)/(1+(IC50/X)[…]), [formula] Y and X represent %inhibition and compound concentration respectively

Integrin αvβ5 Receptor = Integrin αvβ5 Receptor (Homo sapiens, UniProt P06756+P18084); assay: HTRF binding activity to integrin αvβ5 receptor (competition with Vitronectin)
Procedure: B. Evaluation of Compound Binding Activity to Integrin αvβ5 Receptor using Homogeneous Time-Resolved Fluorescence (HTRF) Technology
Compound Preparation: Same as A.
Then 5 µL of integrin receptor protein αvβ5 was added (5 µL of assay buffer was added for negative control), incubated at room temperature for 20 minutes. Next, 5 µL of ligand protein VTN, and 10 µL of the SA-Tb and Anti-His XL665 mixture were added respectively, incubated at room temperature for 1 hour.

Integrin αvβ1 Receptor = Integrin αvβ1 Receptor (Homo sapiens, UniProt P05556+P06756); assay: Fluorescence polarization (FP) binding activity to integrin αvβ1 receptor (competition with Cyclo[-RGDy-K(5-FAM)]); details: Table 4, different integrin receptors
Integrin αvβ6 Receptor [2] = biological target: T1, Integrin αvβ6 Receptor; assay: HTRF binding activity to integrin αvβ6 receptor (competition with LAP (TGF-beta 1)); details: for Hillslope: fit parameter of the inhibition curve; for Emax: maximum of the inhibition curve, read-out: Max; for IC50: table of 5FAM-labelled compounds
Procedure: Reagent Preparation: Assay buffer was prepared.

[3] = Integrin αvβ6, HTRF, Table 3, several runs, each with Cilengitide and 1 as references, read-out: IC50
[4] = Integrin αvβ6, HTRF, table of 5FAM-labelled compounds, read-out: IC50
[5] = IC50 (nM) αvβ5, Table 4, different integrin receptors
[6] = Table 4, different integrin receptors, read-out: IC50 (nM) αvβ6

Sequence of Integrin αvβ1 Receptor (P06756 31-992 limits assumed): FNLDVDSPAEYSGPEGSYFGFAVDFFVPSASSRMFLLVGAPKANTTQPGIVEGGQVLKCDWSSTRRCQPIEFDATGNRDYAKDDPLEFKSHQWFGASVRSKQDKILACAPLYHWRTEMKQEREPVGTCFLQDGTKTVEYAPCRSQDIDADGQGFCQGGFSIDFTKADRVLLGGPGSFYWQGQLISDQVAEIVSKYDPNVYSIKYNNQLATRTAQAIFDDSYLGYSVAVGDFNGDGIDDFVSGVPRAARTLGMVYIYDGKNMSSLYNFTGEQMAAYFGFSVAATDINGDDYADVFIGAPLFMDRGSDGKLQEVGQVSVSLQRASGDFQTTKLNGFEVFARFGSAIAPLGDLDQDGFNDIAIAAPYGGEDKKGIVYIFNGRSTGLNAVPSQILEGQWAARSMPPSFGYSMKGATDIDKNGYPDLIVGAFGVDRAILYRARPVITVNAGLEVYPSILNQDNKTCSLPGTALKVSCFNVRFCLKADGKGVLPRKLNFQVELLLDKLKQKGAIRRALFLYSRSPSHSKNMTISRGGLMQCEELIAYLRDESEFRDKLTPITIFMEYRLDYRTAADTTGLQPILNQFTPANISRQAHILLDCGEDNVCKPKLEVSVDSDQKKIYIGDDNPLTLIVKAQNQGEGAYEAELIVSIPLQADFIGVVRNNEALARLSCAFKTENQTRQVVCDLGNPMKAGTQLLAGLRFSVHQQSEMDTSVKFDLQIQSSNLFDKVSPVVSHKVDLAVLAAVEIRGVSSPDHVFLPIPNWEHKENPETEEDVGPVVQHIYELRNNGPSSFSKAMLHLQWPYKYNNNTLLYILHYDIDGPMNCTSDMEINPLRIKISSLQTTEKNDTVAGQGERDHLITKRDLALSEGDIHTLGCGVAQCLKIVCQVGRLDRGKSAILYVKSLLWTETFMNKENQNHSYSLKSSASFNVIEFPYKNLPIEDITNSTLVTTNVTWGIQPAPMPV
Sequence of Integrin αvβ1 Receptor (P05556 21-728 limits assumed): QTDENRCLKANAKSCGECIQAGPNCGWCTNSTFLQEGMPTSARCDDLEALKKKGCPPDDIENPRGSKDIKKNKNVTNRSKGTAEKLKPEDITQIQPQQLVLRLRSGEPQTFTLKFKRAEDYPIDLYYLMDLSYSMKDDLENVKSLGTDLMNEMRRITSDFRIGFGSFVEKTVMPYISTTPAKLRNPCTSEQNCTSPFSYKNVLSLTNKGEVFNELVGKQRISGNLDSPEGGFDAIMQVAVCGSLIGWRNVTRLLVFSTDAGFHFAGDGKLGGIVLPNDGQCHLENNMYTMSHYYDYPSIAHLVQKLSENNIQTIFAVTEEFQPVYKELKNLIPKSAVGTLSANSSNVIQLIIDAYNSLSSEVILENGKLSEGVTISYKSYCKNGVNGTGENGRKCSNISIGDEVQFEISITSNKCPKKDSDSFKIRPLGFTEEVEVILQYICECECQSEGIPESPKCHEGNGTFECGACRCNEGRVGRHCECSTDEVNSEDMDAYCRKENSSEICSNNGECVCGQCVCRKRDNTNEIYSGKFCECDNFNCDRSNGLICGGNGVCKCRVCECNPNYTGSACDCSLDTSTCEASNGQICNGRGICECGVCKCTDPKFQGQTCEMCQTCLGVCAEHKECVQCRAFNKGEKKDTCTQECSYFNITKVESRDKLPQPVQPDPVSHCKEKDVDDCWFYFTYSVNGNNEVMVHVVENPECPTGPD
Sequence of Integrin αvβ5 Receptor (P06756 31-992 limits assumed): as the sequence (P06756 31-992 limits assumed) above
Sequence of Integrin αvβ5 Receptor (P18084 24-719 limits assumed): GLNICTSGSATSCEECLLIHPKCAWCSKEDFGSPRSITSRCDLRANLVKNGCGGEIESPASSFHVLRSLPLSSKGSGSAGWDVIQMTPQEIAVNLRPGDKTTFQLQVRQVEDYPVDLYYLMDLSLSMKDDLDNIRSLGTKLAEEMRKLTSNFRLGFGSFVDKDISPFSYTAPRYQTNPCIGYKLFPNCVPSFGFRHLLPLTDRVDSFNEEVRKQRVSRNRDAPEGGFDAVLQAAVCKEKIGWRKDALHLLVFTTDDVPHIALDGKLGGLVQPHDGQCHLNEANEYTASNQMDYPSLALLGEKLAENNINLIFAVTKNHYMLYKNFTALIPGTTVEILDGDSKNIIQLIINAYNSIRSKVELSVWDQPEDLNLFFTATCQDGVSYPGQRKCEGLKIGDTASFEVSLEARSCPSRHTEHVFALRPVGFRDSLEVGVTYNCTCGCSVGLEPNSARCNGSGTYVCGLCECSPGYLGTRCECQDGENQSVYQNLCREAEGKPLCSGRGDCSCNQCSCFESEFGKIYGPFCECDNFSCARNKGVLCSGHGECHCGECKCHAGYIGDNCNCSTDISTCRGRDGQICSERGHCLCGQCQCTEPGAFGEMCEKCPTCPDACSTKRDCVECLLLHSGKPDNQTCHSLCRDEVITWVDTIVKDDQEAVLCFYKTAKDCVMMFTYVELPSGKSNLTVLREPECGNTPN
T1 sequence (P06756 31-992 limits assumed): as the sequence (P06756 31-992 limits assumed) above
T1 sequence (P18564 22-707 limits assumed): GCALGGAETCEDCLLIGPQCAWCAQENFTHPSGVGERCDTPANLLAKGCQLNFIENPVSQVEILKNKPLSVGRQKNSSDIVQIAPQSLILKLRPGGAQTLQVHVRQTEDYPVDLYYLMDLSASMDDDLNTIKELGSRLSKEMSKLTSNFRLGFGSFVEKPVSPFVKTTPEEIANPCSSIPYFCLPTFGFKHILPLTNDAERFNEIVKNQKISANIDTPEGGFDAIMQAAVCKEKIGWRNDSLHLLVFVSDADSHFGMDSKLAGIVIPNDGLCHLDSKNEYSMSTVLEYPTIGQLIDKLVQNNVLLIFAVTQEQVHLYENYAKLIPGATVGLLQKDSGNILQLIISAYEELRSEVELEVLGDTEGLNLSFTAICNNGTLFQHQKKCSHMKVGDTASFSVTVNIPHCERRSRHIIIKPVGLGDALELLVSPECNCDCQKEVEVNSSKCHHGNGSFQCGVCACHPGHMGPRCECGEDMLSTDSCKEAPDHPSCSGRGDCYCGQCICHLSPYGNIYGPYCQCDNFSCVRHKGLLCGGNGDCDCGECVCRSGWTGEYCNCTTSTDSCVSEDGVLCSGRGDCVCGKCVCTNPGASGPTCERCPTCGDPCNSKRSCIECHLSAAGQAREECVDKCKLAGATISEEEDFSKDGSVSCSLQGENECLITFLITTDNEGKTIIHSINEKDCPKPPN

## [N-]=[N+]=NCCOCCOCCOCCOCCOc1ccc(-c2ccc(C(CC(=O)O)CN3CCC(CCc4ccc5c(n4)NCCC5)C3)cc2)cc1 (stereo not drawn) [Compound 84]
Integrin αvβ6 Receptor [1]; [3]
  IC50: 3.8 nM

## O=C(O)CC(NC(=O)CCCCc1nc2c(cc1CNC(=O)CCOCCOCCOCCOCCNC(=O)c1ccc3c(c1)C(=O)OC31c3ccc(O)cc3Oc3cc(O)ccc31)CCCN2)c1ccc(-c2cccc3ccccc23)cc1 (stereo not drawn) [Compound 9-5FAM]
Integrin αvβ6 Receptor [1]; Integrin αvβ6, HTRF
  Hillslope: 2.0
  Max: 103.1
  Min: -2.2
Integrin αvβ6 Receptor [1]; [4]
  IC50: 1.48 nM

## Cc1cc(C)n(-c2cccc(C(CC(=O)O)CN3CCC(CCc4nc5c(cc4CNC(=O)CCOCCOCCOCCOCCN=[N+]=[N-])CCCN5)C3)c2)n1 (stereo not drawn) [Compound 13]
Integrin αvβ6 Receptor [1]; [3]
  IC50: 2.5 nM and 1.7 nM

## [N-]=[N+]=NCCOCCOCCOCCOCCOc1ccc(F)c(C(CC(=O)O)CN2CCC(CCc3ccc4c(n3)NCCC4)C2)c1 (stereo not drawn) [Compound 53]
Integrin αvβ6 Receptor [1]; [3]
  IC50: 3.8 nM

## [N-]=[N+]=NCCOCCOCCOCCOCCOc1cccc([C@H](CC(=O)O)CN2CC[C@@H](CCc3ccc4c(n3)NCCC4)C2)c1 (single isomer, unassigned) [Compound 18-P1]
Integrin αvβ5 Receptor; [5]
  IC50: 0.6 nM
Integrin αvβ1 Receptor
  IC50: 9.1 nM
Integrin αvβ6 Receptor [1]; [3]
  IC50: 3.2 nM
Integrin αvβ6 Receptor [1]; [6]
  IC50: 3.2 nM

## O=C(NCc1cn(CCOCCOCCOCCOCCOCCN(CCCCc2ccc3c(n2)NCCC3)CC[C@H](Nc2ncnc3ccccc23)C(=O)O)nn1)c1ccc2c(c1)C(=O)OC21c2ccc(O)cc2Oc2cc(O)ccc21 [Compound 16-5FAM]
Integrin αvβ6 Receptor [2]
  Hillslope: 1.4
  Emax: 101%
  IC50: 1.77 nM

## [N-]=[N+]=NCCOCCOCCOCCOCCOc1cccc2c(-c3ccc(C(CC(=O)O)CN4CCC(CCc5ccc6c(n5)NCCC6)C4)cc3)cccc12 (stereo not drawn) [Compound 71]
Integrin αvβ6 Receptor [1]; [3]
  IC50: 3 nM

## Cc1nn(-c2cccc(C(CC(=O)O)CN3CC[C@@H](CCc4ccc5c(n4)NCCC5)C3)c2)c(C)c1OCCOCCOCCOCCOCCN=[N+]=[N-] (stereo partly drawn) [Compound 14]
Integrin αvβ6 Receptor [1]; [3]
  IC50: 4.9 nM and 2.8 nM

## Cc1ccnc(NCCC2CCN(CC(=O)NC(CC(=O)O)c3ccc(-c4ccc(OCCOCCOCCOCCOCCN=[N+]=[N-])c5ccccc45)cc3)C2=O)c1 (single isomer, unassigned) [Compound 5-P1]
Integrin αvβ5 Receptor; [5]
  IC50: 83.4 nM
Integrin αvβ1 Receptor
  IC50: 753 nM
Integrin αvβ6 Receptor [1]; [3]
  IC50: 3.6 nM
Integrin αvβ6 Receptor [1]; [6]
  IC50: 3.6 nM
Integrin αvβ6 Receptor [1]
  specific binding ability to the αvβ6 receptor: specific binding ability to the αvβ6 receptor

## [N-]=[N+]=NCCOCCOCCOCCOCCOc1ccc(-c2ccc(C(CC(=O)O)CN3CCC(CCc4ccc5c(n4)NCCC5)C3)cc2)c2ccccc12 (stereo not drawn) [Compound 49]
Integrin αvβ6 Receptor [1]; [3]
  IC50: 3.1 nM

## COCCN(CCCCc1ccc2c(n1)NCCC2)CC[C@H](Nc1ncnc2cc(OCCOCCOCCOCCOCCn3cc(CNC(=O)c4ccc5c(c4)C(=O)OC54c5ccc(O)cc5Oc5cc(O)ccc54)nn3)ccc12)C(=O)O [Compound 17-5FAM]
Integrin αvβ6 Receptor [2]
  Hillslope: 1.5
  Emax: 98.9%
  IC50: 7.99 nM

## Cc1ccnc(NCCC2CCN(CC(=O)NC(CC(=O)O)c3ccc(-c4ccc(OCCOCCOCCOCCOCCN=[N+]=[N-])c5ccccc45)cc3)C2=O)c1 (single isomer, unassigned) [Compound 5-P2]
Integrin αvβ5 Receptor; [5]
  IC50: 142 nM
Integrin αvβ1 Receptor
  IC50: 333 nM
Integrin αvβ6 Receptor [1]; [3]
  IC50: 3.9 nM
Integrin αvβ6 Receptor [1]; [6]
  IC50: 3.9 nM
Integrin αvβ6 Receptor [1]
  specific binding ability to the αvβ6 receptor: specific binding ability to the αvβ6 receptor

## COCCOc1cc(OCCOCCOCCOCCOCCN=[N+]=[N-])cc(C(CC(=O)O)CN2CCC(CCc3ccc4c(n3)NCCC4)C2)c1 (stereo not drawn) [Compound 57]
Integrin αvβ6 Receptor [1]; [3]
  IC50: 3.3 nM

## [N-]=[N+]=NCCOCCOCCOCCOCCOc1ccc(C(CC(=O)O)CN2CCC(CCc3ccc4c(n3)NCCC4)C2)cc1F (stereo not drawn) [Compound 83]
Integrin αvβ6 Receptor [1]; [3]
  IC50: 3.7 nM

## Cc1nc(C)n(CCOCCOCCOCCOCCN=[N+]=[N-])c1-c1cccc(C(CC(=O)O)CN2CC[C@@H](CCc3ccc4c(n3)NCCC4)C2)c1 (stereo partly drawn) [Compound 15]
Integrin αvβ6 Receptor [1]; [3]
  IC50: 2.5 nM

## [N-]=[N+]=NCCOCCOCCOCCOCCOc1ccc(C(CC(=O)O)CN2CCC(CCc3ccc4c(n3)NCCC4)C2)cc1 (stereo not drawn) [Compound 20-P2]
Integrin αvβ6 Receptor [1]; [3]
  IC50: 13.4 nM

## [N-]=[N+]=NCCOCCOCCOCCOCCOc1cc(-c2ccccc2)cc(C(CC(=O)O)CN2CCC(CCc3ccc4c(n3)NCCC4)C2)c1 (stereo not drawn) [Compound 59]
Integrin αvβ6 Receptor [1]; [3]
  IC50: 2.9 nM

## Cc1ccnc(NCCCC(=O)NCC(=O)N[C@@H](CC(=O)O)c2ccc(-c3ccc(OCCOCCOCCOCCOCCn4cc(CNC(=O)c5ccc6c(c5)C(=O)OC65c6ccc(O)cc6Oc6cc(O)ccc65)nn4)c4ccccc34)cc2)c1 [Compound 1-5FAM]
Integrin αvβ6 Receptor [2]
  Emax: 97%
  IC50: 1.41 nM

## [N-]=[N+]=NCCOCCOCCOCCOCCOc1ccc(-c2ccc([C@H](CC(=O)O)NC(=O)CCCCc3ccc4c(n3)NCCC4)cc2)c2ccccc12 [Compound 8]
Integrin αvβ6 Receptor [1]; Integrin αvβ6, HTRF
  Hillslope: 2.5
  Max: 107.0
  Min: -2.0
Integrin αvβ6 Receptor [1]; [4]
  IC50: 1.37 nM

## CNc1cccc(CCCCC(=O)N[C@@H](CC(=O)O)c2ccc(-c3ccc(OCCOCCOCCOCCOCCn4cc(CNC(=O)c5ccc6c(c5)C(=O)OC65c6ccc(O)cc6Oc6cc(O)ccc65)nn4)c4ccccc34)cc2)n1 [Compound 7-5FAM]
Integrin αvβ6 Receptor [2]
  Hillslope: 1.2
  Emax: 102%
  IC50: 3.17 nM

## Cc1ccnc(NCCCC(=O)N2CCN(C(CC(=O)O)c3ccc(-c4ccc(OCCOCCOCCOCCOCCn5cc(CNC(=O)c6ccc7c(c6)C(=O)OC76c7ccc(O)cc7Oc7cc(O)ccc76)nn5)c5ccccc45)cc3)CC2)c1 (stereo not drawn) [Compound 4-5FAM]
Integrin αvβ6 Receptor [2]
  Hillslope: 1.1
  Emax: 100%

## O=C(O)c1ccc2c(c1)C(=O)OC21c2ccc(O)cc2Oc2cc(O)ccc21 [Compound 5FAM]
Integrin αvβ6 Receptor [1]; Integrin αvβ6, HTRF
  Hillslope: -11.5
  Max: 6.3
  Min: -2.8
Integrin αvβ6 Receptor [1]; [4]
  IC50: > 100 nM

## Cc1ccnc(NCCCC(=O)NCC(=O)N[C@@H](CC(=O)O)c2ccc(-c3ccc(OCCOCCOCCOCCOCCn4cc(COCCOCCNC(=O)CCC(CCC(=O)NCCOCCOCc5cn(CCOCCOCCOCCOCCOc6ccc(-c7ccc([C@H](CC(=O)O)NC(=O)CNC(=O)CCCNc8cc(C)ccn8)cc7)c7ccccc67)nn5)(CCC(=O)NCCOCCOCc5cn(CCOCCOCCOCCOCCOc6ccc(-c7ccc([C@H](CC(=O)O)NC(=O)CNC(=O)CCCNc8cc(C)ccn8)cc7)c7ccccc67)nn5)NC(=O)CCCC(=O)NCCCCCCNC(=O)c5ccc6c(c5)C(=O)OC65c6ccc(O)cc6Oc6cc(O)ccc65)nn4)c4ccccc34)cc2)c1 [Compound 1-3-5FAM]
Integrin αvβ6 Receptor [2]
  Hillslope: 1.6
  Emax: 107%
  IC50: 2.52 nM

## CNc1cccc(CC(=O)NCC(=O)N[C@@H](CC(=O)O)c2ccc(-c3ccc(OCCOCCOCCOCCOCCn4cc(CNC(=O)c5ccc6c(c5)C(=O)OC65c6ccc(O)cc6Oc6cc(O)ccc65)nn4)c4ccccc34)cc2)n1 [Compound 6-5FAM]
Integrin αvβ6 Receptor [2]
  Hillslope: 1.2
  Emax: 95.8%
  IC50: 1.6 nM

## Cc1nn(-c2cccc(C(CC(=O)O)CN3CC[C@@H](CCc4ccc5c(n4)NCCC5)C3)c2)c(C)c1OCCOCCOCCOCCOCCN=[N+]=[N-] (single isomer, unassigned) [Compound 14-P2]
Integrin αvβ5 Receptor; read-out: IC50 (nM) αvβ5, Table 4, different integrin receptors
  IC50: 0.7 nM
Integrin αvβ1 Receptor
  IC50: 10.3 nM
Integrin αvβ6 Receptor [1]; [3]
  IC50: 3.5 nM
Integrin αvβ6 Receptor [1]; [6]
  IC50: 3.9 nM

## [N-]=[N+]=NCCOCCOCCOCCOCCOc1cc(C(CC(=O)O)CN2CCC(CCc3ccc4c(n3)NCCC4)C2)ccc1F (stereo not drawn) [Compound 86]
Integrin αvβ6 Receptor [1]; [3]
  IC50: 4.5 nM

## [N-]=[N+]=NCCOCCOCCOCCOCCOc1ccc([C@H](CC(=O)O)CN2CC[C@@H](CCc3ccc4c(n3)NCCC4)C2)cc1 (single isomer, unassigned) [Compound 20-P1]
Integrin αvβ5 Receptor; [5]
  IC50: 0.7 nM
Integrin αvβ1 Receptor
  IC50: 8.1 nM
Integrin αvβ6 Receptor [1]; [3]
  IC50: 3.7 nM
Integrin αvβ6 Receptor [1]; [6]
  IC50: 3.7 nM

## Cc1nn(-c2cccc(C(CC(=O)O)CN3CC[C@@H](CCc4ccc5c(n4)NCCC5)C3)c2)c(C)c1OCCOCCOCCOCCOCCN=[N+]=[N-] (single isomer, unassigned) [Compound 14-P1]
Integrin αvβ6 Receptor [1]; [3]
  IC50: 9.4 nM

## Cc1ccnc(NCCCC(=O)NCC(=O)N[C@@H](CC(=O)O)c2ccc(-c3ccc(OCCOCCOCCOCCOCCN=[N+]=[N-])c4ccccc34)cc2)c1 [Compound 1, reference compound]
Integrin αvβ5 Receptor; [5]
  IC50: 3.4 nM
Integrin αvβ1 Receptor
  IC50: 9.7 nM
Integrin αvβ6 Receptor [1]; [3]
  IC50: 2.5 nM and 2.3 nM
Integrin αvβ6 Receptor [1]; [6]
  IC50: 2.5 nM

## Cc1ccnc(NCCC2CCN(CC(=O)N[C@@H](CC(=O)O)c3ccc(-c4ccc(OCCOCCOCCOCCOCCn5cc(CNC(=O)c6ccc7c(c6)C(=O)OC76c7ccc(O)cc7Oc7cc(O)ccc76)nn5)c5ccccc45)cc3)C2=O)c1 (stereo partly drawn) [Compound 5-5FAM]
Integrin αvβ6 Receptor [2]
  Hillslope: 1.3
  Emax: 107%

## [N-]=[N+]=NCCOCCOCCOCCOCCOc1cccc(C(CC(=O)O)CN2CCC(CCc3ccc4c(n3)NCCC4)C2)c1 (stereo not drawn) [Compound 18-P2]
Integrin αvβ6 Receptor [1]; [3]
  IC50: 13.9 nM

## CC(C)[C@H]1C(=O)N[C@@H](CCCNC(=N)N)C(=O)NCC(=O)N[C@@H](CC(=O)O)C(=O)N[C@H](Cc2ccccc2)C(=O)N1C [Cilengitide, reference compound]
Integrin αvβ6 Receptor [2]
  Hillslope: 1.2
  Emax: 98.2%

## COC(=O)C[C@H](NC(=O)CNC(=O)CCCN(C(=O)OC(C)(C)C)c1cc(C)ccn1)c1ccc(-c2ccc(OCCOCCOCCOCCOCCn3cc(CNC(=O)c4ccc5c(c4)C(=O)OC54c5ccc(O)cc5Oc5cc(O)ccc54)nn3)c3ccccc23)cc1 [Compound 1NG-5FAM]
Integrin αvβ6 Receptor [2]
  Hillslope: 2.5
  Emax: 100%
  IC50: 41.9 nM
